Results: the supplement of paper PMC6045584
± gives the standard deviation of the averaged measurements.

Legend:
AFATINIB [1] = compound: T1, CN(C)C/C=C/C(=O)Nc1cc2c(Nc3ccc(F)c(Cl)c3)ncnc2cc1O[C@H]1CCOC1 [AFATINIB]; assay: area under dose-response curve of surviving fraction (unscaled, Aref=0) (surviving fraction x log10(nM)); higher = more resistant; conditions: exposure time: 5 days; dose range 0.5-1000 nM
In short: (§1)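 Surviving fractions were fitted by 3-parameter logistic regression in the drc R package to give dose-response survival curves. They came from tumour cell lines treated for five days with eight inhibitor concentrations from 0.5 to 1000 nM and read by CellTiter-Glo luminescence against DMSO-only wells. The area under the curve is the unscaled activity area. It was calculated over log10 dose with Aref = 0.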

SNX-5422 [2] = compound: T2, CC1(C)CC(=O)c2c(C(F)(F)F)nn(-c3ccc(C(N)=O)c(N[C@H]4CC[C@H](OC(=O)CN)CC4)c3)c2C1 [SNX-5422]; assay: as above; conditions: exposure time: 5 days; dose range 0.5-1000 nM
In short: as §1

MDV3100 [3] = compound: T3, CNC(=O)c1ccc(N2C(=S)N(c3ccc(C#N)c(C(F)(F)F)c3)C(=O)C2(C)C)cc1F [MDV3100]; assay: as above; conditions: exposure time: 5 days; dose range 0.5-1000 nM
In short: as §1

SAPACITABINE [4] = compound: T4, CCCCCCCCCCCCCCCC(=O)Nc1ccn([C@@H]2O[C@H](CO)[C@@H](O)[C@@H]2C#N)c(=O)n1 [SAPACITABINE]; assay: as above; conditions: exposure time: 5 days; dose range 0.5-1000 nM
In short: as §1

[5] = compound: Cn1cc(C2=Nc3cc(NC(=O)C(N)C4CCCCC4)cc4c3C2=CNNC4=O)cn1; assay: as above; conditions: exposure time: 5 days; dose range 0.5-1000 nM
In short: as §1

CANERTINIB [6] = compound: T5, C=CC(=O)Nc1cc2c(Nc3ccc(F)c(Cl)c3)ncnc2cc1OCCCN1CCOCC1 [CANERTINIB]; assay: as above; conditions: exposure time: 5 days; dose range 0.5-1000 nM
In short: as §1

BI-2536 [7] = compound: T6, CC[C@@H]1C(=O)N(C)c2cnc(Nc3ccc(C(=O)NC4CCN(C)CC4)cc3OC)nc2N1C1CCCC1 [BI-2536]; assay: as above; conditions: exposure time: 5 days; dose range 0.5-1000 nM
In short: as §1

AFATINIB [8] = compound: T1, AFATINIB; assay: surviving fraction relative to DMSO-only wells; higher = less growth inhibition; conditions: exposure time: 5 days
In short: (§2)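 Tumour cell lines in log phase were plated in 384-well plates at 250–500 cells per well, then, after 24 hours, exposed continuously for five days to inhibitors at 0.5, 1, 5, 10, 50, 100, 500 and 1000 nM. Viability came from CellTiter-Glo luminescence, and surviving fraction is that signal normalised to the median of DMSO-only wells. Plates were read after 10 minutes at room temperature, and each line, screened three times, was kept only when replicate Pearson r was >0.7 and median Z' was >0.3.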

SNX-5422 [9] = compound: T2, SNX-5422; assay: as above; conditions: exposure time: 5 days
In short: as §2

MDV3100 [10] = compound: T3, MDV3100; assay: as above; conditions: exposure time: 5 days
In short: as §2

SAPACITABINE [11] = compound: T4, SAPACITABINE; assay: as above; conditions: exposure time: 5 days
In short: as §2

[12] = compound: Cn1cc(C2=Nc3cc(NC(=O)C(N)C4CCCCC4)cc4c3C2=CNNC4=O)cn1; assay: as above; conditions: exposure time: 5 days
In short: as §2

TIOGUANINE = compound: Nc1nc2[nH]cnc2c(=S)[nH]1 [TIOGUANINE]; assay: as above; conditions: exposure time: 5 days
In short: as §2

CANERTINIB [13] = compound: T5, CANERTINIB; assay: as above; conditions: exposure time: 5 days
In short: as §2

BI-2536 [14] = compound: T6, BI-2536; assay: as above; conditions: exposure time: 5 days
In short: as §2

SUM149 BREAST
area under dose-response curve (AFATINIB [1]): 1.98
area under dose-response curve (SNX-5422 [2]): 1.7
area under dose-response curve (MDV3100 [3]): 2.73
area under dose-response curve (SAPACITABINE [4]): 1.31
area under dose-response curve [5]: 1.97
area under dose-response curve (CANERTINIB [6]): 1.76
area under dose-response curve (BI-2536 [7]): 0.784
surviving fraction (AFATINIB [8]; 0.5 nM): 1.03 ± 0.076
surviving fraction (AFATINIB [8]; 1 nM): 1.05 ± 0.033
surviving fraction (AFATINIB [8]; 5 nM): 0.703 ± 0.12
surviving fraction (AFATINIB [8]; 10 nM): 0.573 ± 0.089
surviving fraction (AFATINIB [8]; 50 nM): 0.481 ± 0.056
surviving fraction (AFATINIB [8]; 100 nM): 0.439 ± 0.013
surviving fraction (AFATINIB [8]; 500 nM): 0.4053 ± 0.004
surviving fraction (AFATINIB [8]; 1000 nM): 0.339 ± 0.044
surviving fraction (SNX-5422 [9]; 0.5 nM): 0.982 ± 0.046
surviving fraction (SNX-5422 [9]; 1 nM): 0.986 ± 0.14
surviving fraction (SNX-5422 [9]; 5 nM): 1.09 ± 0.1
surviving fraction (SNX-5422 [9]; 10 nM): 0.951 ± 0.097
surviving fraction (SNX-5422 [9]; 50 nM): 0.0727 ± 0.0076
surviving fraction (SNX-5422 [9]; 100 nM): 0.082 ± 0.0095
surviving fraction (SNX-5422 [9]; 500 nM): 0.0233 ± 0.0021
surviving fraction (SNX-5422 [9]; 1000 nM): 0.0287 ± 0.0015
surviving fraction (MDV3100 [10]; 0.5 nM): 1.03 ± 0.047
surviving fraction (MDV3100 [10]; 1 nM): 0.922 ± 0.087
surviving fraction (MDV3100 [10]; 5 nM): 0.897 ± 0.038
surviving fraction (MDV3100 [10]; 10 nM): 0.36 ± 0.043
surviving fraction (MDV3100 [10]; 50 nM): 1.07 ± 0.095
surviving fraction (MDV3100 [10]; 100 nM): 0.951 ± 0.021
surviving fraction (MDV3100 [10]; 500 nM): 1.01 ± 0.092
surviving fraction (MDV3100 [10]; 1000 nM): 0.546 ± 0.013
surviving fraction (SAPACITABINE [11]; 0.5 nM): 0.829 ± 0.11
surviving fraction (SAPACITABINE [11]; 1 nM): 0.666 ± 0.055
surviving fraction (SAPACITABINE [11]; 5 nM): 0.69 ± 0.11
surviving fraction (SAPACITABINE [11]; 10 nM): 0.188 ± 0.006
surviving fraction (SAPACITABINE [11]; 50 nM): 0.339 ± 0.031
surviving fraction (SAPACITABINE [11]; 100 nM): 0.22 ± 0.018
surviving fraction (SAPACITABINE [11]; 500 nM): 0.236 ± 0.016
surviving fraction (SAPACITABINE [11]; 1000 nM): 0.186 ± 0.021
surviving fraction ([12]; 0.5 nM): 0.875 ± 0.087
surviving fraction ([12]; 1 nM): 0.854 ± 0.13
surviving fraction ([12]; 5 nM): 0.874 ± 0.14
surviving fraction ([12]; 10 nM): 0.911 ± 0.1
surviving fraction ([12]; 50 nM): 0.481 ± 0.067
surviving fraction ([12]; 100 nM): 0.238 ± 0.047
surviving fraction ([12]; 500 nM): 0.0587 ± 0.0096
surviving fraction ([12]; 1000 nM): 0.063 ± 0.0062
surviving fraction (TIOGUANINE; 0.5 nM): 1.06 ± 0.068
surviving fraction (TIOGUANINE; 1 nM): 0.998 ± 0.076
surviving fraction (TIOGUANINE; 5 nM): 1.11 ± 0.068
surviving fraction (TIOGUANINE; 10 nM): 1.05 ± 0.058
surviving fraction (TIOGUANINE; 50 nM): 0.984 ± 0.029
surviving fraction (TIOGUANINE; 100 nM): 1.06 ± 0.082
surviving fraction (TIOGUANINE; 500 nM): 1.01 ± 0.067
surviving fraction (TIOGUANINE; 1000 nM): 1.05 ± 0.058
surviving fraction (CANERTINIB [13]; 0.5 nM): 0.898 ± 0.078
surviving fraction (CANERTINIB [13]; 1 nM): 0.832 ± 0.052
surviving fraction (CANERTINIB [13]; 5 nM): 0.627 ± 0.029
surviving fraction (CANERTINIB [13]; 10 nM): 0.531 ± 0.04
surviving fraction (CANERTINIB [13]; 50 nM): 0.451 ± 0.053
surviving fraction (CANERTINIB [13]; 100 nM): 0.424 ± 0.072
surviving fraction (CANERTINIB [13]; 500 nM): 0.324 ± 0.037
surviving fraction (CANERTINIB [13]; 1000 nM): 0.279 ± 0.037
surviving fraction (BI-2536 [14]; 0.5 nM): 1.05 ± 0.054
surviving fraction (BI-2536 [14]; 1 nM): 0.906 ± 0.091
surviving fraction (BI-2536 [14]; 5 nM): 0.122 ± 0.012
surviving fraction (BI-2536 [14]; 10 nM): 0.0487 ± 0.0035
surviving fraction (BI-2536 [14]; 50 nM): 0.0743 ± 0.0057
surviving fraction (BI-2536 [14]; 100 nM): 0.0903 ± 0.014
surviving fraction (BI-2536 [14]; 500 nM): 0.084 ± 0.01
surviving fraction (BI-2536 [14]; 1000 nM): 0.0603 ± 0.0065

CCK81 LARGE INTESTINE
area under dose-response curve (MDV3100 [3]): 2.49
area under dose-response curve (SAPACITABINE [4]): 2.16
area under dose-response curve (CANERTINIB [6]): 1.68
surviving fraction (MDV3100 [10]; 0.5 nM): 0.843 ± 0.11
surviving fraction (MDV3100 [10]; 1 nM): 0.8 ± 0.19
surviving fraction (MDV3100 [10]; 5 nM): 0.717 ± 0.076
surviving fraction (MDV3100 [10]; 10 nM): 0.728 ± 0.046
surviving fraction (MDV3100 [10]; 50 nM): 0.75 ± 0.091
surviving fraction (MDV3100 [10]; 100 nM): 0.757 ± 0.068
surviving fraction (MDV3100 [10]; 500 nM): 0.79 ± 0.03
surviving fraction (MDV3100 [10]; 1000 nM): 0.728 ± 0.06
surviving fraction (SAPACITABINE [11]; 0.5 nM): 0.972 ± 0.18
surviving fraction (SAPACITABINE [11]; 1 nM): 0.94 ± 0.2
surviving fraction (SAPACITABINE [11]; 5 nM): 0.813 ± 0.13
surviving fraction (SAPACITABINE [11]; 10 nM): 0.7 ± 0.13
surviving fraction (SAPACITABINE [11]; 50 nM): 0.427 ± 0.12
surviving fraction (SAPACITABINE [11]; 100 nM): 0.482 ± 0.041
surviving fraction (SAPACITABINE [11]; 500 nM): 0.456 ± 0.047
surviving fraction (SAPACITABINE [11]; 1000 nM): 0.47 ± 0.056
surviving fraction (CANERTINIB [13]; 0.5 nM): 0.778 ± 0.19
surviving fraction (CANERTINIB [13]; 1 nM): 0.874 ± 0.16
surviving fraction (CANERTINIB [13]; 5 nM): 0.928 ± 0.13
surviving fraction (CANERTINIB [13]; 10 nM): 0.816 ± 0.18
surviving fraction (CANERTINIB [13]; 50 nM): 0.186 ± 0.03
surviving fraction (CANERTINIB [13]; 100 nM): 0.0957 ± 0.019
surviving fraction (CANERTINIB [13]; 500 nM): 0.0373 ± 0.0083
surviving fraction (CANERTINIB [13]; 1000 nM): 0.0263 ± 0.0059
